Patent US7771978B2, “β1,4mannosyltransferases” (priority 2003, dated 2010)

The substances below were run against T1, Egghead β1-4-mannosyltransferase (Drosophila melanogaster, UniProt O01346) (assay: Egghead transfer of Man to glycosphingolipid acceptors (thin-layer chromatography/autoradiography)). Settings: GDP-Man donor; microsomal fraction; 4 h.
T1 construct: a secreted version of egghead was prepared as described for the full length construct; made in house; host or cells: baculovirus-infected Sf9 and High Five insect cells (microsomal fractions)
T1 sequence (O01346 1-457): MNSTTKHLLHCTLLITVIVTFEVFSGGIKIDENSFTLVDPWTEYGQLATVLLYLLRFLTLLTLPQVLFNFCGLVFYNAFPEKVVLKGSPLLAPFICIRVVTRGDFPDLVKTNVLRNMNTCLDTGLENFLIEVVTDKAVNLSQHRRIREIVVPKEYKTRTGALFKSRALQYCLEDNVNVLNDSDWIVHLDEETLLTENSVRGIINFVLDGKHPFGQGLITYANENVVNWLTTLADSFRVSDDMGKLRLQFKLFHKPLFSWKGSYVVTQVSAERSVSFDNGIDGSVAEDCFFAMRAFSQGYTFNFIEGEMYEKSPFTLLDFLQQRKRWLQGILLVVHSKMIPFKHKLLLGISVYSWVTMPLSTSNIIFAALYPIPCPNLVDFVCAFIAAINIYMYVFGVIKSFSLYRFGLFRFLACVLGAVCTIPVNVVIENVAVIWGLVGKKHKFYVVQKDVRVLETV
Assay type: biochemical
Experimental: Microsomal fraction of egghead (Egh) and GalNAc-T4 (GT4) were incubated with Glcβ1-1Cer, LacCer, or no glycolipid and GDP-Man as described in Experimental Procedures. Autoradiography of thin-layer chromatography of reaction products (4 h). Plate was run in chloroform-methanol-water (60/38/10, v/v/v). Migration of standard glycolipids is indicated with arrows.
Glycosphingolipids of the fruit fly are based on the arthroseries GlcNAcβ1-3Manβ1-4Glcβ1-1 Cer core. […] Evidence in support hereof was provided by showing that brainiac utilizes the product formed by egghead (FIG. 5). This assay was carried out with n-octyl-β-Glc as initial acceptor substrate because it served as a better substrate than GlcCer under the assay conditions used.
An expression construct of the full coding region of egghead was prepared by RT-PCR using D. melanogaster mRNA and the sense primer Egh001 (5′-[…]-3′, SEQ ID NO: 4) with a BglII restriction site and the anti-sense primer Egh002 (5′-[…]-3′, SEQ ID NO: 5) with a XbaI restriction site. The resulting 1.1 Kb fragment was cloned into the BglII/XbaI sites of pVL1393 (PharMingen) and pVL1393-MYC. Furthermore an expression construct for a secreted version of egghead was prepared as described for the full length construct but using sense primer Egh003 (5′[…]-3′, SEQ ID NO: 6) with a BglII restriction site and the anti-sense primer Egh002. The resulting 1 Kb fragment was cloned into pAcGP67 Baculo-virus expression vector. Expression constructs pVL-egghead-full and pVL-egghead-Myc-full and pAcGP67-egghead-sol were co-transfected with Baculo-Gold™ DNA (Pharmingen) in Sf9 cells as described (12). […] Pellets were used at 10 mg/ml (Protein concentration determined by BCA, Pierce). Reaction products of soluble acceptors were quantified by chromatography on Dowex AG1-X8 (Sigma). Assays with glycosphingolipids included 5 mM 2-Acetamido-2-deoxy-D-Glucono-1,5-lactone (inhibitor of hexosaminidase activity), and products were purified on octadecyl-silica cartridges (Supelco) and analyzed by high performance thin-layer chromatography followed by autoradiography.

| Substance | glycosphingolipid as acceptor substrate of egghead (in words) |
| --- | --- |
| Galβ1-1Cer | not to serve as a substrate |
| Galβ1-4Glcβ1-Cer [LacCer] | does not serve as substrate |
| Glcβ1-1Cer | utilizes |
